From US20090036450A1, “PYRAZOLE COMPOUNDS AND USE THEREOF” (JAPAN TOBACCO, INC., priority 2006, published 2009) come the findings set out here.

Where a name gives a salt, the structure may show the parent alone. Bounds are passed on as bounds.

This test concerns the target T1, human liver glycogen phosphorylase (Homo sapiens, UniProt P06737).
T1 construct: made in house; host or cells: Sf9 insect cells (suspension of disrupted cells, diluted in BES buffer, not purified)
T1 sequence (P06737 1-847): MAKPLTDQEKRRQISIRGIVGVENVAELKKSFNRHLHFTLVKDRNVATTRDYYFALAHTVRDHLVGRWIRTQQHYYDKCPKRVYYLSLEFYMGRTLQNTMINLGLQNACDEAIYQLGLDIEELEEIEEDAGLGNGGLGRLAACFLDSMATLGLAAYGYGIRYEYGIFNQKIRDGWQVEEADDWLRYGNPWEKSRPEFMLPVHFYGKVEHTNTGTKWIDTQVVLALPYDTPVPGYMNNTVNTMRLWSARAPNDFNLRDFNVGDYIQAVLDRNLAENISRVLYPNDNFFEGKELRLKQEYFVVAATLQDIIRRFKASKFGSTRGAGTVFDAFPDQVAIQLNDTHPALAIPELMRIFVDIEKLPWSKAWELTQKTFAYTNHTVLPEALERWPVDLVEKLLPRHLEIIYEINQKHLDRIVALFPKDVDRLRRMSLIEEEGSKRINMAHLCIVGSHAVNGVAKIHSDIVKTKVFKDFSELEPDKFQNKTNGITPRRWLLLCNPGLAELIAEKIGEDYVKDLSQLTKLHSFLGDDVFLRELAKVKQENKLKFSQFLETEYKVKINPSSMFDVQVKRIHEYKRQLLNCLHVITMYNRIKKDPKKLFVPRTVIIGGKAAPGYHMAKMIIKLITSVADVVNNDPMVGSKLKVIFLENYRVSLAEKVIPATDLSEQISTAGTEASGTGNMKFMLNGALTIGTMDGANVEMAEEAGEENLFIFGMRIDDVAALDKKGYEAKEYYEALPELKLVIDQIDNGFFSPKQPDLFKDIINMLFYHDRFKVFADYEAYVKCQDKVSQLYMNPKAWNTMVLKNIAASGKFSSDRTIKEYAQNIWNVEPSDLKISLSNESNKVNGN
Kind of test: Liver glycogen phosphorylase activity, forward reaction system (NADPH detection at 340 nm). To be noted: enzyme inhibitory activity against recombinant human liver glycogen phosphorylase (Sf9 cell lysate), room temperature, 75 minutes. Type of test: biochemical. How it is done: The glycogen phosphorylase activity was determined by a method using a forward reaction system.
The following method was used to determine the glycogen phosphorylase activity using a forward reaction system. Glucose-1-phosphate generated from glycogen by glycogen phosphorylase was converted to glucono-δ-lactone-6-phosphate by transphosphorylation and dehydrogenation reactions using phosphoglucomutase and glucose-6-phosphate dehydrogenase (G6PDH). At this time, NADPH generated from NADP in the dehydrogenation reaction by G6PDH was detected.
An enzyme solution of human liver glycogen phosphorylase was obtained by diluting with 100 mmol/L BES buffer (pH 6.8, containing 2 mmol/L EDTA) a suspension disrupted Sf9 cells in which a recombinant human liver glycogen phosphorylase was forcibly expressed. Phosphate buffer (16 mmol/L KH2PO4, containing 24 mmol/L Na2HPO4) was used as a substrate solution. A mixture of 8 U/mL phosphoglucomutase and 60 U/mL G6PDH was prepared with BES buffer. A reaction buffer (1.4 mmol/L NADP, 30 mmol/L MgCl2, 8 μmol/L glucose-1,6-diphosphate, 8 mg/mL glycogen, 40 mmol/L BES, containing 0.8 mmol/L EDTA) and a glucose solution (75 mmol/L glucose and 100 mmol/L BES, containing 2 mmol/L EDTA) were prepared. A test substance was dissolved in 1% DMSO aqueous solution.
To a mixture of the glucose solution (20 μL), the substrate solution (20 μL), the reaction buffer (100 μL), and the test substance (20 μL), the recombinant human liver glycogen phosphorylase solution (20 μL), and a mixture (20 μL) of phosphoglucomutase and G6PDH were added to initiate an enzymatic reaction. To a control, 1% DMSO aqueous solution was added instead of the test substance. A solution to which the substrate was not added was used as a blank. After initiation of the reaction, absorbance at 340 nm was measured immediately. The reaction was performed at room temperature for 75 minutes, and then absorbance at 340 nm was measured again. The enzyme activity was obtained by deducting the change in absorbance of the blank for 75 minutes from the change in absorbance over 75 minutes. The inhibition rate (%) of the test substance was calculated by “(1−(enzyme activity of test substance)/(enzyme activity of control))×100”.
“IC50” represents an enzyme inhibitory activity against human liver glycogen phosphorylase.

As to `Cc1onc(-c2ccc(C#N)cc2)c1CNC(=O)c1cc(NC(=O)c2cc(F)c(F)cc2Cl)[nH]n1` [Example 1-14, 5-(2-chloro-4,5-difluoro-benzoylamino)-1H-pyrazole-3-carboxylic acid [3-(4-cyano-phenyl)-5-methylisoxazol-4-ylmethyl]-amide], the IC50 is under 100 nM.
In the case of `Cc1nc(C2CC2)c(CNC(=O)c2cc(NC(=O)c3cc(F)c(F)cc3Cl)[nH]n2)o1` [Example 1-37, 5-(2-chloro-4,5-difluoro-benzoylamino)-1H-pyrazole-3-carboxylic acid (4-cyclopropyl-2-methyl-oxazol-5-ylmethyl)-amide] it was under 100 nM; in that of `COc1cccc(-c2nnc(CNC(=O)c3cc(NC(=O)c4cc(F)c(F)cc4Cl)[nH]n3)o2)c1` [Example 1-60, 5-(2-chloro-4,5-difluoro-benzoylamino)-1H-pyrazole-3-carboxylic acid [5-(3-methoxy-phenyl)-[1,3,4]oxadiazol-2-ylmethyl]-amide], under 100 nM; in that of `O=C(O)Cc1nnc(CNC(=O)c2cc(NC(=O)c3cc(F)c(F)cc3Cl)[nH]n2)o1` [Example 3-19, 5-(2-chloro-4,5-difluoro-benzoylamino)-1H-pyrazole-3-carboxylic acid (5-carboxymethyl-[1,3,4]oxadiazol-2-ylmethyl)-amide], 100 to 300 nM.
The same measure for `NC(=O)Cc1nnc(CNC(=O)c2cc(NC(=O)c3cc(F)c(F)cc3Cl)[nH]n2)o1` [Example 3-20, 5-(2-chloro-4,5-difluoro-benzoylamino)-1H-pyrazole-3-carboxylic acid (5-carbamoylmethyl-[1,3,4]oxadiazol-2-ylmethyl)-amide]: 100 to 300 nM; for `Cc1nc(CO)c(CNC(=O)c2cc(NC(=O)c3cc(F)c(F)cc3Cl)[nH]n2)o1` [Example 1-35, 5-(2-chloro-4,5-difluoro-benzoylamino)-1H-pyrazole-3-carboxylic acid (4-hydroxymethyl-2-methyl-oxazol-5-ylmethyl)-amide]: under 100 nM; for `Cc1nc(-c2ccc(F)cc2)c(CNC(=O)c2cc(NC(=O)c3cc(F)c(F)cc3Cl)[nH]n2)o1` [Example 1-25, 5-(2-chloro-4,5-difluoro-benzoylamino)-1H-pyrazole-3-carboxylic acid [4-(4-fluoro-phenyl)-2-methyl-oxazol-5-ylmethyl]-amide]: under 100 nM.
As for `Cc1nc(COC(=O)c2cccs2)c(CNC(=O)c2cc(NC(=O)c3cc(F)c(F)cc3Cl)[nH]n2)o1` [Example 3-22, 5-(2-chloro-4,5-difluoro-benzoylamino)-1H-pyrazole-3-carboxylic acid [2-methyl-4-(thiophene-2-carbonyloxymethyl)-oxazol-5-ylmethyl]-amide], the IC50 is under 100 nM.
In the case of `Cc1nc(-c2cccc(F)c2)c(CNC(=O)c2cc(NC(=O)c3cc(F)c(F)cc3Cl)[nH]n2)o1` [Example 1-26, 5-(2-chloro-4,5-difluoro-benzoylamino)-1H-pyrazole-3-carboxylic acid [4-(3-fluoro-phenyl)-2-methyl-oxazol-5-ylmethyl]-amide] it was under 100 nM.
As for `O=C(NCc1nnc(-c2cc3ccccc3s2)o1)c1cc(NC(=O)c2cc(F)c(F)cc2Cl)[nH]n1` [Example 1-77, 5-(2-chloro-4,5-difluoro-benzoylamino)-1H-pyrazole-3-carboxylic acid (5-benzo[b]thiophen-2-yl-[1,3,4]oxadiazol-2-ylmethyl)-amide], the IC50 is 100 to 300 nM.
The same measure for `Cc1nc(COCC(=O)NCc2ccccc2)oc1CNC(=O)c1cc(NC(=O)c2cc(F)c(F)cc2Cl)[nH]n1` [Example 3-9, 5-(2-chloro-4,5-difluoro-benzoylamino)-1H-pyrazole-3-carboxylic acid [2-(benzylcarbamoyl-methoxymethyl)-4-methyl-oxazol-5-ylmethyl]-amide]: under 100 nM; for `Cc1cccc(-n2nc(C)c(CNC(=O)c3cc(NC(=O)c4cc(F)c(F)cc4Cl)[nH]n3)c2C)c1` [Example 1-66, 5-(2-chloro-4,5-difluoro-benzoylamino)-1H-pyrazole-3-carboxylic acid [3,5-dimethyl-1-(3-methyl-phenyl)-1H-pyrazol-4-ylmethyl]-amide]: under 100 nM; for `O=C(NCc1cnn(-c2ccc(F)cc2)c1C1CC1)c1cc(NC(=O)c2cc(F)c(F)cc2Cl)[nH]n1` [Example 1-67, 5-(2-chloro-4,5-difluoro-benzoylamino)-1H-pyrazole-3-carboxylic acid [5-cyclopropyl-1-(4-fluoro-phenyl)-1H-pyrazol-4-ylmethyl]-amide]: under 100 nM.
`O=C(NCc1nnc(-c2ccc(Cl)cc2)o1)c1cc(NC(=O)c2cc(F)c(F)cc2Cl)[nH]n1` [Example 1-52, 5-(2-chloro-4,5-difluoro-benzoylamino)-1H-pyrazole-3-carboxylic acid [5-(4-chloro-phenyl)-[1,3,4]oxadiazol-2-ylmethyl]-amide]: the IC50 is under 100 nM.
The same measure for `Cc1nc(COCC(=O)O)oc1CNC(=O)c1cc(NC(=O)c2cc(F)c(F)cc2Cl)[nH]n1` [Example 3-7, 5-(2-chloro-4,5-difluoro-benzoylamino)-1H-pyrazole-3-carboxylic acid (2-carboxymethoxymethyl-4-methyl-oxazol-5-ylmethyl)-amide]: under 100 nM; for `Cc1nc(CO)oc1CNC(=O)c1cc(NC(=O)c2cc(F)c(F)cc2Cl)[nH]n1` [Example 3-24, 5-(2-chloro-4,5-difluoro-benzoylamino)-1H-pyrazole-3-carboxylic acid (2-hydroxymethyl-4-methyl-oxazol-5-ylmethyl)-amide hydrochloride]: under 100 nM.
With `Cc1nc(Cn2nnc(CNC(=O)c3cc(NC(=O)c4cc(F)c(F)cc4Cl)[nH]n3)c2C)cs1` [Example 1-65, 5-(2-chloro-4,5-difluoro-benzoylamino)-1H-pyrazole-3-carboxylic acid [5-methyl-1-(2-methyl-thiazol-4-ylmethyl)-1H-[1,2,3]triazol-4-ylmethyl]-amide], the IC50 is under 100 nM.
The same measure for `Cc1cc(-c2nnsc2CNC(=O)c2cc(NC(=O)c3cc(F)c(F)cc3Cl)[nH]n2)c(C)o1` [Example 1-84, 5-(2-chloro-4,5-difluoro-benzoylamino)-1H-pyrazole-3-carboxylic acid [4-(2,5-dimethyl-furan-3-yl)-[1,2,3]thiadiazol-5-ylmethyl]-amide]: under 100 nM; for `Cc1nc(C2CC2)oc1CNC(=O)c1cc(NC(=O)c2cc(F)c(F)cc2Cl)[nH]n1` [Example 1-39, 5-(2-chloro-4,5-difluoro-benzoylamino)-1H-pyrazole-3-carboxylic acid (2-cyclopropyl-4-methyl-oxazol-5-ylmethyl)-amide]: under 100 nM; for `Cc1noc(-c2nc(C)oc2CNC(=O)c2cc(NC(=O)c3cc(F)c(F)cc3Cl)[nH]n2)n1` [Example 1-71, 5-(2-chloro-4,5-difluoro-benzoylamino)-1H-pyrazole-3-carboxylic acid [2-methyl-4-(3-methyl-[1,2,4]oxadiazol-5-yl)-oxazol-5-ylmethyl]-amide]: under 100 nM.
The same measure for `O=C(NCc1sccc1OCc1ccccc1)c1cc(NC(=O)c2cc(F)c(F)cc2Cl)[nH]n1` [Example 1-3, 5-(2-chloro-4,5-difluoro-benzoylamino)-1H-pyrazole-3-carboxylic acid (3-benzyloxy-thiophen-2-ylmethyl)-amide]: 100 to 300 nM.

Usually IC50 stands for the concentration that gives 50% inhibition.
